One assay deals with hKIF18A (1-374) (Homo sapiens (Human), UniProt Q8NI77). The experiment in a line: Inhibition of KIF18A microtubule-dependent ATPase activity (ADP-Glo). The format is biochemical. To be noted: 4 nM hKIF18A (1-374). The essentials:
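Reaction was started with pre-formed microtubules and ATP (0.2 mg/mL and 2.0 mM in the added mix) and run 60 min at 28 °C. ADP was read by ADP-Glo luminescence, and IC50 came from a four-parameter fit of % inhibition.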
(In ADP-Glo the light output rises with the ADP produced.)

The target in assay [1] is KIF18a-microtubule complex (Homo sapiens (Human), UniProt Q8NI77). The experiment in a line: Binding kinetics to KIF18a-microtubule complex (global progress curve analysis). The conditions noted are these: for kon (on-rate from binding kinetics assay) / koff: KIF18A 0.25 nM, up to 24 hr; for koff: read-out: koff (off-rate from binding kinetics assay) (converted); for Ki: koff/kon, read-out: KI (determined from binding kinetic assay koff/kon). On the procedure: Compound binding kinetics parameters (kon and koff) were determined by the method of global progress curve analysis (GPCA). […] ADP product levels were determined by the Promega® ADP-Glo assay.

Another assay deals with HCC15 cells. The experiment in a line: Cell viability of KIF18a-sensitive cell lines, HCC15 (Cell Titre-Glo, 7 days). The assay is classed as cell-based. To be noted: 168 h; HCC15, 7 days; read-out: HCC15 IC50.
Another assay concerns JIMT-1 cells. Nature of the assay: Cell viability of KIF18a-sensitive cell lines, JIMT-1 (Cell Titre-Glo, 7 days). The assay is classed as cell-based. To be noted: Homo sapiens, 168 h; JIMT-1, 7 days; read-out: JIMT-1 IC50.
The test system of the next assay is NIH:OVCAR-3 cells. The experiment in a line: Cell viability of KIF18a-sensitive cell lines, NIH:OVCAR-3 (Cell Titre-Glo, 7 days). The assay is classed as cell-based. To be noted: Homo sapiens, OVCAR-3, 168 h; NIH:OVCAR3, 7 days; read-out: NIH:OVCAR3 IC50.
A further assay concerns OVCAR-3 tumor cells. Nature of the assay: In vivo activity, OVCAR-3 xenograft tumor growth inhibition. The conditions noted are these: OVCAR3 model, Balb/C nude mice, FIG. 1. On the procedure:
(§1) OVCAR-3 (ATCC) tumor cells were maintained in vitro in RPMI-1640 medium supplemented with 20% fetal bovine serum, 0.01 mg/mL bovine insulin and 1% Anti-Anti at 37° C. in an atmosphere of 5%/CO2 in air. HCC15 (DSMZ) tumor cells were maintained in vitro in RPMI 1640 medium supplemented with 10% fetal bovine serum and 1% Anti-Anti at 37° C. in an atmosphere of 5% CO2 in air.
(§2) The tumor cells were sub-cultured twice weekly. The cells growing in an exponential growth phase were harvested and counted for tumor inoculation.
(§3) Tumor cells (10×106) in 0.2 mL of PBS mixed with Matrigel (50:50) were inoculated subcutaneously on the right flank of each mouse. When the average tumor volume reached 110-175 mm^3, animals were randomized into groups of 10 and treatment started. OVCAR-3 cells were implanted in Balb/C nude mice, and HCC15 cell were implanted in SCID Beige mice.
(§4) Compounds were dosed once or twice a day (12 h) orally. Tumor Growth Inhibition (TGI) was calculated using the formula: TGI (%)=[1−(TN−T0)/(VN−V0)]×100; TN is the average tumor volume of a treatment group at the indicated timepoint, T0 is the average tumor volume of the treatment group on treatment day 0, VN is the average tumor volume of the vehicle control group at the indicated timepoint, and V0 is the average tumor volume of the vehicle group on treatment day 0. P value was calculated based on tumor size by One-Way ANOVA with GraphPad Prism 9.4.0 compared with the vehicle group, respectively. **** indicates p<0.0001.
(§5) The tumor volume of vehicle- and compound-treated mice as a function of time after start of treatment and the results of treatments with selected compounds on SCID Beige mice or nude mice implanted with HCC15 or OVCAR-3 are shown in FIGS. 1 and 2. The TGI calculated for treatments with selected compounds are shown in Table 11.

The subject of another assay is HCC15 tumor cells. Nature of the assay: In vivo activity, HCC15 xenograft tumor growth inhibition. To be noted: HCC15 model, SCID Beige mice, FIG. 2. As for the experimental part: as §1, §2, §3, §4, §5

SMILES strings stand for the structures.

Sequence of hKIF18A (1-374) (Q8NI77 1-374): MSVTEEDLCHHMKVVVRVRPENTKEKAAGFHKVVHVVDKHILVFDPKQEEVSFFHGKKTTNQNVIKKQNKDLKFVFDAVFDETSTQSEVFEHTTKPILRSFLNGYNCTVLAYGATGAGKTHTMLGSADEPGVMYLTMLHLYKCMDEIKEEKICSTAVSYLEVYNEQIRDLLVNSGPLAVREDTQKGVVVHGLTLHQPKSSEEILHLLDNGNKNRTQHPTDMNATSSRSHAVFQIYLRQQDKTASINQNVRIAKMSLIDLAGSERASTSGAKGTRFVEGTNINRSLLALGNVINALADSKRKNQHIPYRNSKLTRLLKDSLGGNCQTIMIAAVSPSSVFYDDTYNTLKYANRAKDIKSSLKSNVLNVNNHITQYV
Sequence of KIF18a-microtubule complex (Q8NI77 1-374, one chain of several): as the sequence (Q8NI77 1-374) above

As for `Cc1cc(-c2cn(-c3ccc(NS(=O)(=O)CCO)cc3N3CCC4(CC3)CC4)nn2)nc(N2CCC(F)(F)CC2)n1` [Compound 47, N-(4-(4-(2-(4,4-difluoropiperidin-1-yl)-6-methylpyrimidin-4-yl)-1H-1,2,3-triazol-1-yl)-3-(6-azaspiro[2.5]octan-6-yl)phenyl)-2-hydroxyethane-1-sulfonamide], the IC50 – broadly, the concentration needed to halve the response being measured – against hKIF18A (1-374) is 19 nM; in the assay with HCC15 cells, 9.2 nM; with JIMT-1 cells, 16 nM; with NIH:OVCAR-3 cells it was 13 nM. Further, in assay [1], the “kon (on-rate from binding kinetics assay)” value (“kon” for short) came out at 14400 M⁻¹ s⁻¹. Besides, in assay [1], the koff – broadly, a measure of how fast the partners let go of each other – was 2.78e-06 s⁻¹. The Ki in assay [1] is 0.2 nM. Besides, the “disc. t1/2 (dissociation half-life ln(2)/koff)” value in assay [1] turned out to be 68 h. For the same molecule, the TGI in the assay with OVCAR-3 tumor cells (3 mg/kg QD PO) came to 44 ± 11%; in the assay on OVCAR-3 tumor cells (10 mg/kg QD PO) it was 119 ± 1%; in the assay on OVCAR-3 tumor cells (30 mg/kg QD PO) it was 120 ± 1%; in the assay with HCC15 tumor cells (3 mg/kg QD PO) it was 64 ± 7%; in the assay with HCC15 tumor cells (10 mg/kg QD PO), 83 ± 4%; in the assay on HCC15 tumor cells (30 mg/kg QD PO) it was 87 ± 4%.
At hKIF18A (1-374), `Cc1cc(-c2cn(-c3ccc(NS(=O)(=O)CCO)cc3N3CCCCC3)nn2)nc(N2CCC(F)(F)CC2)c1` [Compound 68, N-(4-(4-(6-(4,4-difluoropiperidin-1-yl)-4-methylpyridin-2-yl)-1H-1,2,3-triazol-1-yl)-3-(piperidin-1-yl)phenyl)-2-hydroxyethane-1-sulfonamide] had an IC50 of 12 nM. In assay [1], the “kon” value came to 21900 M⁻¹ s⁻¹, the koff was 1.81e-05 s⁻¹, the Ki came out at 0.82 nM and the “disc. t1/2 (dissociation half-life ln(2)/koff)” value was found to be 11 h. In the assay with HCC15 cells, the IC50 turned out to be 28 nM. Also, the IC50 in the assay with JIMT-1 cells turned out to be 30 nM. Also, the IC50 in the assay on NIH:OVCAR-3 cells was found to be 21 nM.
Molecule `O=S(=O)(CCO)Nc1ccc(-n2cc(-c3csc(N4CCC(F)(F)CC4)n3)nn2)c(N2CCC3(CC2)CC3)c1` [Compound 69, N-(4-(4-(2-(4,4-difluoropiperidin-1-yl)thiazol-4-yl)-1H-1,2,3-triazol-1-yl)-3-(6-azaspiro[2.5]octan-6-yl)phenyl)-2-hydroxyethane-1-sulfonamide] showed an IC50 at hKIF18A (1-374) of 6 nM. Also, in assay [1], the “kon” value amounted to 36100 M⁻¹ s⁻¹, the koff was 1.94e-05 s⁻¹, the Ki turned out to be 0.53 nM and the “disc. t1/2 (dissociation half-life ln(2)/koff)” value was determined as 9.9 h. Also, the IC50 with HCC15 cells amounted to 29 nM. Further, the IC50 with JIMT-1 cells was 38 nM. Moreover, the IC50 in the assay on NIH:OVCAR-3 cells came to 32 nM.

(Values after patent US20230382889A1 (Volastra Therapeutics, Inc., priority 2022, published 2023).)
